Entries after “also recorded” stand apart in the source; their conditions may differ.

What all share (assay): Growth of heme resistant mutant in CeHR medium
Holding throughout (assay type): in vivo, Caenorhabditis elegans

The subject of one assay is C. elegans mutant IH731. Here is the method: (§1) To further increase the stringency of our genetic screen we split the contents from each 800 μM hemin selection flasks into two flasks containing either 800 μM or 1000 μM hemin. This allowed us to use another tier of positive selection to identify mutants with greater resistance to heme toxicity. Mutants from each flask were isolated and treated as a separate entity by giving an identification number based on the Genetic Nomenclature Guidelines used for C. elegans (http://biosci.umn.edu/CGC/Nomenclature/nomenguid.htm). To eliminate EMS-induced spurious mutations that could result in false positive, the mutants were outcrossed to wild-type N2 males. After five outcrosses, which replaces ˜97% of the mutant genome, mutants that bred true were selected for further analysis. Using this procedure, we isolated 13 individual mutants that were resistant to heme toxicity. These mutants were further characterized by analyzing Mendelian segregation ratios, X-linkage, phenotype penetrance, generation times, brood size, and their ability to grow under low hemin. […] This observation was surprising because we anticipated that high heme-resistant mutants will grow poorly under low heme. Based on the mutant's growth profile at low and high heme levels, we broadly categorized them into three phenotypic classes: class A, class B and class C (FIG. 13). These “phenoclusters” have the following growth phenotype: (a) three mutants IH728, IH938, IH731 show with robust growth under low and high (≧800 μM heme (FIG. 13B), (b) one mutant IH828 show exceptional growth under low heme, moderate growth at ≦800 μM heme, and no growth at 1000 μM hemin (FIG. 13C), and (c) six mutants IH921, IH11058, IH1068n, IH1068d, IH1048, and IH718 that show moderate growth under high heme (≦800 μM), but normal growth under low heme (FIG. 13D). By classifying these mutants into phenoclusters, we can focus our efforts on the phenotypic datasets to map the molecular networks and pathways involved in heme dependent processes. For instance, mutants in a cluster may have mutations within the same gene or in multiple genes but within the same pathway.
(§2) Worm Culture and Growth Assays. Free-living worms were cultured in CeHR axenic liquid medium (Dr. Eric Clegg, Personal Communication). […] CeHR medium was modified (henceforth called mCeHR) to eliminate all sources of exogenously added heme; basal growth medium comprised 20 μM hemin chloride (Frontier Scientific, Logan, Utah) and 150 μM of ferrous ammonium sulfate (Sigma Chemicals). Worm strains were grown in mCeHR medium under aerobic conditions in tissue culture flasks at 20° C. ˜3.7×10^6 worms were routinely obtained after 3.5 to 4 days in a T75 flask with 30 ml basal medium from an initial inoculum of −1.5×10^5 worms. For initial culturing of worms in axenic media, three generations of worms were sequentially bleached (1.1% bleach/0.55 M NaOH) to eliminate any contaminating bacterial carryover from agar plates. In all dose-response experiments, worms were growth synchronized by treating the gravid hermaphrodite worms with bleach to dissolve adult worms. The eggs, resistant to bleach, were liberated from the carcasses and extensively washed with M9 buffer followed by overnight hatching in M9 buffer to synchronize growth. By harvesting at appropriate time intervals, synchronous larval stages and adult staged worms were collected for experimental manipulations. Identical numbers of synchronized L1 larvae were inoculated into media with different heme concentrations in 12- or 24-well culture plates. Worm growth was monitored each day and an aliquot was obtained for counting by microscopy usually at days 3, 6, and 9. The worms in each well were counted twice and each growth condition was analyzed in triplicate. P values for statistical significance were calculated utilizing a one-way ANOVA with Student-Newman-Keuls multiple comparison test using GraphPad Instat version 3.01. […]

The next assay concerns C. elegans mutant IH938. Here is the method: as §1, §2
Another assay has as its system C. elegans mutant IH828. Here is the method:
as §1, §2

The next assay concerns C. elegans mutant IH728. Here is the method: as §1, §2
Where [1] appears, read: 20 μM hemin, average in 24 well plates.

For the substance hemin chloride, the “Generation time (Days) 20 μM” value is 3.5 days in the assay on C. elegans mutant IH731 (20 μM hemin); 3.5 days in the assay with C. elegans mutant IH938 (20 μM hemin); 3.5 days in the assay with C. elegans mutant IH828 (IH828, 20 μM hemin); 3.5 days with C. elegans mutant IH728 (20 μM hemin). Moreover, the “brood size 20 μM” value in the assay with C. elegans mutant IH731 (setting [1]) is 53; in the assay with C. elegans mutant IH938 (setting [1]) it was 72; in the assay on C. elegans mutant IH828 (IH828, 20 μM hemin, average in 24 well plates), 67; with C. elegans mutant IH728 (setting [1]), 53. Further, the “Generation time (Days) 800 μM” value with C. elegans mutant IH731 (800 μM hemin) amounted to 4 days; in the assay with C. elegans mutant IH938 (800 μM hemin), 4 days; in the assay with C. elegans mutant IH828 (IH828, 800 μM hemin), 4 days; with C. elegans mutant IH728 (800 μM hemin) it was 4 days. The “resistance of IH828” value with C. elegans mutant IH828 (800 μM hemin) is “moderately resistant”. Also, in the assay with C. elegans mutant IH828 (1000 μM hemin), the “growth of IH828” value was “no growth; also recorded: does not grow”.

The values above are taken from patent US20060206946A1, “Method of disrupting heme transport in nematodes and of modelling and evaluating eukaryotic heme transport” (priority 2005, published 2006).
